# Data as given in ChEMBL document CHEMBL1148761, “2-aroylindoles and 2-aroylbenzofurans with N-hydroxyacrylamide substructures as a novel series of rationally designed histone deacetylase inhibitors” (J Med Chem, 2007).
# pIC50: −log10 of the molar value. Activity calls are given as the source filed them. The calls are words filed in the database; no cut-off is given here.
# Assays:
# Histone deacetylase 1 = Histone deacetylase 1 (Homo sapiens, UniProt Q13547)
# Description: Inhibition of recombinant HDAC1 in HeLa cells
# Histone deacetylase [1] = assay: Inhibition of HDAC in HeLa cells; assay type: cell-based, Homo sapiens
# Histone deacetylase [2] = assay: Inhibition of HDAC in HeLa cells assessed as induction of human histone H3 hyperacetylation; assay type: cell-based
# HeLa = assay: Cytotoxicity against HeLa cells; assay type: functional, cell-based; conditions: Homo sapiens
# K562 = assay: Cytotoxicity against human K562 cells; assay type: functional, cell-based
# A549 [3] = assay: Induction of human histone H3 hyperacetylation in A549 cells at 1 to 3 uM; assay type: functional, cell-based
# MDA-MB-468 = assay: Cytotoxicity against human MDA-MB-468 cells; assay type: functional, cell-based
# A2780 = assay: Cytotoxicity against human A2780 cells; assay type: functional, cell-based
# CCRF-CEM [4] = assay: Cytotoxicity against human CCRF-CEM cells; assay type: functional, cell-based
# RKO [5] = assay: Induction of human histone H3 hyperacetylation in RKO cells at 1 to 3 uM; assay type: functional, cell-based
# A549 [6] = assay: Induction of apoptosis in A549 cells at 10 uM; assay type: functional, cell-based; conditions: Homo sapiens
# EOL1 = assay: Cytotoxicity against human EOL1cells; assay type: functional, cell-based
# SAOS-2 = assay: Cytotoxicity against human Saos2 cells; assay type: functional, cell-based
# [7] = Cytotoxicity against human proliferating RKOp21 cells; assay type: functional, cell-based
# HCT-15 = assay: Cytotoxicity against human HCT15 cells; assay type: functional, cell-based
# MCF7 = assay: Cytotoxicity against human MCF7 cells; assay type: functional, cell-based
# A-431 = assay: Cytotoxicity against human A431 cells; assay type: functional, cell-based
# CCRF-CEM [8] = assay: Cytotoxicity against vincristine resistant human CCRF-CEM cells; assay type: functional, cell-based
# RKO [9] = assay: Inhibition of histone-H3S phosphorylation in human RKO cells at 10 uM; assay type: cell-based
# HCT-116 = assay: Cytotoxicity against human HCT116 cells; assay type: functional, cell-based
# SK-OV-3 = assay: Cytotoxicity against human SK-OV-3 cells; assay type: functional, cell-based
# MDA-MB-231 = assay: Cytotoxicity against human MDA-MB-231cells; assay type: functional, cell-based
# ASPC1 = assay: Cytotoxicity against human AsPC1 cells; assay type: functional, cell-based
# NCI = assay: Cytotoxicity against human NCI H69 cells; assay type: functional, cell-based
# NCI-H460 = assay: Cytotoxicity against human NCI H460 cells; assay type: functional, cell-based
# cells = assay type: functional, cell-based; conditions: Homo sapiens, WM 266-4
# Description: Cytotoxicity against human WM 266-4 cells
# Histone deacetylase 8 = Histone deacetylase 8 (Homo sapiens, UniProt Q9BY41); assay: Inhibition of recombinant HDAC8
# Chain of Histone deacetylase 8 (Q9BY41 whole entry): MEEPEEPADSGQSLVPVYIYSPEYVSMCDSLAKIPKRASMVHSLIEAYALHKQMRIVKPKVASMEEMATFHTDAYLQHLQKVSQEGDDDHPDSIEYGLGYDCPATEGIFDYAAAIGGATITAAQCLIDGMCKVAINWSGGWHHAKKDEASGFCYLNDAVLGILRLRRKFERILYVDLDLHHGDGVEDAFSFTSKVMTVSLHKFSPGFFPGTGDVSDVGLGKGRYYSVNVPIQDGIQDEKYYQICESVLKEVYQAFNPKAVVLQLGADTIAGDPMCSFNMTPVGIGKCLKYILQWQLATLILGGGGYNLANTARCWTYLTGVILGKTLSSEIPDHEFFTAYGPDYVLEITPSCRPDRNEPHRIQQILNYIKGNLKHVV
# [10] = Cytotoxicity against human Hec-1-A cells; assay type: functional, cell-based
# [11] = Cytotoxicity against human non-proliferating RKOp21 cells; assay type: functional, cell-based
# 549 = assay: Inhibition of histone-H3S phosphorylation in […] cells at 10 uM; assay type: cell-based
# [12] = Cytotoxicity against human U87MG cells; assay type: functional, cell-based, U-87MG ATCC; conditions: U-87 MG
# SK-BR-3 = assay: Cytotoxicity against human SKBR3 cells; assay type: functional, cell-based
# A549 [13] = assay: Cytotoxicity against human A549 cells; assay type: functional, cell-based
# CAL-27 = assay: Cytotoxicity against human Cal27 cells; assay type: functional, cell-based
# PC-3 = assay: Cytotoxicity against human PC3 cells; assay type: functional, cell-based
# Histone deacetylase 3 = Histone deacetylase 3 (Homo sapiens, UniProt O15379); assay: Inhibition of recombinant HDAC3
# Chain of Histone deacetylase 3 (O15379 whole entry): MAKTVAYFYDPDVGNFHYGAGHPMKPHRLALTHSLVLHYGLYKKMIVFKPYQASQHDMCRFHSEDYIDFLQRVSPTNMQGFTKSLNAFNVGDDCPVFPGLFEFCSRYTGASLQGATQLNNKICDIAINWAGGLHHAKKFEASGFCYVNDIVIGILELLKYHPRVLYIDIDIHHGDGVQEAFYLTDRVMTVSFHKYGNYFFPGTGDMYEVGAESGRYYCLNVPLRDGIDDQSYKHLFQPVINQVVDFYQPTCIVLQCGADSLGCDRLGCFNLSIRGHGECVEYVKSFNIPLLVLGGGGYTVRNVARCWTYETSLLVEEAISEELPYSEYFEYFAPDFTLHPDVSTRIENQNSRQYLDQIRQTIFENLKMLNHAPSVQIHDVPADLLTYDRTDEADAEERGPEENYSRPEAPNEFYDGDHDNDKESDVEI
# Chain of Histone deacetylase 1 (Q13547 whole entry): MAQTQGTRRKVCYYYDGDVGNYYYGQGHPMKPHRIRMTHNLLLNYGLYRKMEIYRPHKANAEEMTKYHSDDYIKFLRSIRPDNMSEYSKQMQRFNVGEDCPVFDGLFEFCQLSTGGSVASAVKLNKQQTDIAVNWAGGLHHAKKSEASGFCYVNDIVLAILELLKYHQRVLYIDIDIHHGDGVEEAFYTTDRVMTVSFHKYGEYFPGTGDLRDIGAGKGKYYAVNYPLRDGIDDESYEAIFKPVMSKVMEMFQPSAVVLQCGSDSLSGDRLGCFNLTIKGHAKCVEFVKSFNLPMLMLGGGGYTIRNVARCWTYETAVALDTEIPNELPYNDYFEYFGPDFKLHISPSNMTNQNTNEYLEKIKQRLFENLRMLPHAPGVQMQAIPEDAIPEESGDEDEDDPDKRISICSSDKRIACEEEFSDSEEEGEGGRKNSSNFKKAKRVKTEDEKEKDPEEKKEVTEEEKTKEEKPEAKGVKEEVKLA
smiles,measurement,setting,value
O=C(/C=C/c1cccc(C(=O)c2cc3ccccc3n2S(=O)(=O)c2ccccc2)c1)NO,pIC50,Histone deacetylase 1,7.05
same,IC50,Histone deacetylase [1],34 nM
same,EC50,Histone deacetylase [2],1000 nM
same,pIC50,HeLa,5.76
O=C(/C=C/c1ccc2c(c1)cc(C(=O)c1ccccc1)n2S(=O)(=O)c1ccccc1)NO,pIC50,Histone deacetylase 1,6.70
same,IC50,Histone deacetylase [1],90 nM
same,EC50,Histone deacetylase [2],2670 nM
same,pIC50,HeLa,5.54
O=C(/C=C/c1cccc(C(=O)c2cc3ccccc3[nH]2)c1)NO,pIC50,Histone deacetylase 1,7.51
same,pIC50,K562,6.77
same,Activity,A549 [3],Active
same,pIC50,MDA-MB-468,6.26
same,pIC50,A2780,6.47
same,pIC50,CCRF-CEM [4],6.70
same,Activity,RKO [5],Active
same,Activity,A549 [6],Active
same,pIC50,EOL1,7.14
same,pIC50,SAOS-2,6.00
same,pIC50,[7],5.98
same,pIC50,HCT-15,6.11
same,pIC50,MCF7,5.72
same,pIC50,A-431,6.22
same,pIC50,CCRF-CEM [8],6.60
same,Activity,RKO [9],Active
same,pIC50,HCT-116,6.44
same,pIC50,SK-OV-3,6.05
same,pIC50,MDA-MB-231,6.05
same,pIC50,ASPC1,5.41
same,pIC50,NCI,6.48
same,IC50,Histone deacetylase [1],39 nM
same,pIC50,NCI-H460,6.59
same,pIC50,cells,6.51
same,pIC50,Histone deacetylase 8,7.49
same,pIC50,[10],6.21
same,pIC50,[11],5.59
same,Activity,549,Active
same,EC50,Histone deacetylase [2],1300 nM
same,pIC50,[12],6.00
same,pIC50,HeLa,6.07
same,pIC50,SK-BR-3,6.28
same,pIC50,A549 [13],6.01
same,pIC50,CAL-27,6.12
same,pIC50,PC-3,6.68
same,pIC50,Histone deacetylase 3,7.30
COc1ccc2c(c1)cc(C(=O)c1ccc(/C=C/C(=O)NO)cc1)n2S(=O)(=O)c1ccccc1,pIC50,Histone deacetylase 1,6.06
same,IC50,Histone deacetylase [1],260 nM
same,EC50,Histone deacetylase [2],6900 nM
same,pIC50,HeLa,5.27
COc1cc(C(=O)c2cc3cc(/C=C/C(=O)NO)ccc3o2)cc(OC)c1OC,pIC50,Histone deacetylase 1,5.96
same,IC50,Histone deacetylase [1],1000 nM
same,EC50,Histone deacetylase [2],7500 nM
same,pIC50,HeLa,5.24
COc1cccc(C(=O)c2cc3cc(/C=C/C(=O)NO)ccc3[nH]2)c1,pIC50,Histone deacetylase 1,6.52
same,IC50,Histone deacetylase [1],330 nM
same,EC50,Histone deacetylase [2],2570 nM
same,pIC50,HeLa,5.53
O=C(/C=C/c1ccc(C(=O)c2cc3ccccc3n2S(=O)(=O)c2ccccc2)cc1)NO,pIC50,Histone deacetylase 1,6.16
same,IC50,Histone deacetylase [1],270 nM
same,EC50,Histone deacetylase [2],5700 nM
same,pIC50,HeLa,5.27
O=C(CCCCCCC(=O)Nc1ccccc1)NO [VORINOSTAT],pIC50,SAOS-2,5.64
same,pIC50,SK-OV-3,5.66
same,pIC50,MDA-MB-231,5.66
O=C(/C=C/c1ccc2[nH]c(C(=O)c3ccccc3)cc2c1)NO,pIC50,Histone deacetylase 1,6.60
same,IC50,Histone deacetylase [1],340 nM
same,EC50,Histone deacetylase [2],3770 nM
same,pIC50,HeLa,5.40
COc1ccc2[nH]c(C(=O)c3ccc(/C=C/C(=O)NO)cc3)cc2c1,pIC50,Histone deacetylase 1,6.49
same,IC50,Histone deacetylase [1],280 nM
same,EC50,Histone deacetylase [2],4270 nM
same,pIC50,HeLa,5.46
COc1cccc(C(=O)c2cc3cc(/C=C/C(=O)NO)ccc3n2S(=O)(=O)c2ccccc2)c1,pIC50,Histone deacetylase 1,6.64
same,IC50,Histone deacetylase [1],120 nM
same,EC50,Histone deacetylase [2],2780 nM
same,pIC50,HeLa,5.48
O=C(/C=C/c1cccc(C(=O)c2cc3ccccc3o2)c1)NO,pIC50,Histone deacetylase 1,7.28
same,pIC50,K562,6.82
same,Activity,A549 [3],Active
same,pIC50,MDA-MB-468,6.30
same,pIC50,A2780,6.46
same,pIC50,CCRF-CEM [4],6.74
same,Activity,RKO [5],Active
same,Activity,A549 [6],Active
same,pIC50,EOL1,7.31
same,pIC50,SAOS-2,6.04
same,pIC50,[7],6.02
same,pIC50,HCT-15,6.13
same,pIC50,MCF7,5.89
same,pIC50,A-431,6.23
same,pIC50,CCRF-CEM [8],6.62
same,Activity,RKO [9],Active
same,pIC50,HCT-116,6.44
same,pIC50,SK-OV-3,6.13
same,pIC50,MDA-MB-231,6.14
same,pIC50,ASPC1,5.46
same,pIC50,NCI,6.72
same,IC50,Histone deacetylase [1],57 nM
same,pIC50,NCI-H460,6.60
same,pIC50,cells,6.51
same,pIC50,Histone deacetylase 8,7.10
same,pIC50,[10],6.33
same,pIC50,[11],5.43
same,Activity,549,Active
same,EC50,Histone deacetylase [2],290 nM
same,pIC50,[12],5.96
same,pIC50,HeLa,6.17
same,pIC50,SK-BR-3,6.51
same,pIC50,A549 [13],6.11
same,pIC50,CAL-27,6.18
same,pIC50,PC-3,6.80
same,pIC50,Histone deacetylase 3,7.10
O=C(/C=C/c1ccc(C(=O)c2cc3ccccc3[nH]2)cc1)NO,pIC50,Histone deacetylase 1,6.39
same,IC50,Histone deacetylase [1],310 nM
same,EC50,Histone deacetylase [2],2970 nM
same,pIC50,HeLa,5.32
COc1cccc(C(=O)c2cc3cc(/C=C/C(=O)NO)ccc3o2)c1,pIC50,Histone deacetylase 1,6.02
same,IC50,Histone deacetylase [1],650 nM
same,EC50,Histone deacetylase [2],4100 nM
same,pIC50,HeLa,5.39
O=C(/C=C/c1ccc(C(=O)c2cc3ccccc3o2)cc1)NO,pIC50,Histone deacetylase 1,6.28
same,IC50,Histone deacetylase [1],450 nM
same,EC50,Histone deacetylase [2],1100 nM
same,pIC50,HeLa,5.59
O=C(/C=C/c1ccc2oc(C(=O)c3ccccc3)cc2c1)NO,pIC50,Histone deacetylase 1,5.92
same,IC50,Histone deacetylase [1],830 nM
same,EC50,Histone deacetylase [2],2650 nM
same,pIC50,HeLa,5.25
